# Data: US6696431B2, “26,27-homologated-20-EPI-2-alkylidene-19-nor-vitamin D compounds” (Wisconsin Alumni Research Foundation, priority 1997, dated 2004)
# Marks after values point to notes of the source that are not given here.
# Experiments:
# vitamin D-deficient rats [1] = test: Intestinal calcium transport after a single dose (Table 2); format: in vivo, rat; settings: single intrajugular dose 650 pmol, 24 h later, mean±SEM
# Protocol: (§1) Male Holtzman strain weanling rats were obtained from the Sprague Dawley Co. (Indianapolis, Ind.) and fed the 0.47% calcium, 0.3% phosphorus diet described by Suda et al. (J. Nutr. 100, 1049-1052, 1970) for 1 week and then fed the same diet containing 0.02% calcium and 0.3% phosphorus for 2 additional weeks. At this point, they received a single intrajugular injection of the indicated dose dissolved in 0.1 ml of 95% propylene glycol/5% ethanol. Twenty-four hours later they were sacrificed and intestinal calcium transport and serum calcium were determined as described in Table 1. The dose of the compounds was 650 pmol and there were 5 animals per group. The data are expressed as mean±SEM.
# HL-60 cells = test: Differentiation of HL-60 promyelocytes to monocytes (NBT reduction); format: cell-based; settings: for HL-60 Differentiation ED50: concentration inducing 50% maturation, NBT reduction; for induction of differentiation of HL-60 cells to the monocyte, in words: FIG. 2; for HL-60 Differentiation Activity ratio: ratio of analog ED50 to ED50 for 1α,25-(OH)2D3
# [2] = system: Vitamin D-Deficient Rats on a Low-Calcium Diet; test: Intestinal calcium transport in vitamin D-deficient rats on a low-calcium diet (Tables 4, 6); format: in vivo, rat
# vitamin D-deficient rats [3] = test: Serum calcium (bone calcium mobilization) after a single dose (Table 2); format: in vivo, rat; settings: single intrajugular dose 650 pmol, 24 h later, mean±SEM
# Protocol: as §1
# [4] = system: Vitamin D-Deficient Rats on a Low-Calcium Diet; test: Bone calcium mobilization (serum Ca) in vitamin D-deficient rats on a low-calcium diet (Tables 4, 6); format: in vivo, rat
# vitamin D-deficient rats [5] = test: Serum calcium (bone calcium mobilization), chronic doses for 7 days (Table 1); format: in vivo, rat; settings: for Serum Calcium: intraperitoneal, 24 h after last dose, mean±SEM; for bone calcium mobilization, in words: 130 and 260 pmol/day
# Protocol: (§2) Male weanling rats were obtained from Sprague Dawley Co. (Indianapolis, Ind.) and fed a 0.47% calcium, 0.3% phosphorus vitamin D-deficient diet for 1 week and then given the same diet containing 0.02% calcium, 0.3% phosphorus for 2 weeks. During the last week they were given the indicated dose of compound by intraperitoneal injection in 0.1 ml 95% propylene glycol and 5% ethanol each day for 7 days. The control animals received only the 0.1 ml of 95% propylene glycol, 5% ethanol. Twenty-four hours after the last dose, the rats were sacrificed and intestinal calcium transport was determined by everted sac technique as previously described and serum calcium determined by atomic absorption spectrometry on a model 3110 Perkin Elmer instrument (Norwalk, Conn.). There were 5 rats per group and the values represent mean±SEM.
# vitamin D-deficient rats [6] = test: Intestinal calcium transport (everted sac), chronic doses for 7 days (Table 1); format: in vivo, rat; settings: for Intestinal Calcium Transport (S/M): intraperitoneal, 24 h after last dose, mean±SEM; for intestinal calcium transport, in words: chronic 7 days, 130 or 260 pmol/day, 1,25-(OH)2D3 at 260 pmol/day only
# Protocol: as §2
# [7] = biological target: T1, porcine intestinal vitamin D receptor (Sus scrofa, UniProt A3RGC1); test: Competitive binding to the porcine intestinal vitamin D receptor; settings: for EC50: concentration for 50% displacement of radiolabeled 1α,25-(OH)2D3, read-out: VDR Binding ED50; for VDR Binding ratio: ratio of analog ED50 to ED50 for 1α,25-(OH)2D3
# T1 construct: from tissue; host or cells: porcine intestine
# T1 sequence (A3RGC1 1-427): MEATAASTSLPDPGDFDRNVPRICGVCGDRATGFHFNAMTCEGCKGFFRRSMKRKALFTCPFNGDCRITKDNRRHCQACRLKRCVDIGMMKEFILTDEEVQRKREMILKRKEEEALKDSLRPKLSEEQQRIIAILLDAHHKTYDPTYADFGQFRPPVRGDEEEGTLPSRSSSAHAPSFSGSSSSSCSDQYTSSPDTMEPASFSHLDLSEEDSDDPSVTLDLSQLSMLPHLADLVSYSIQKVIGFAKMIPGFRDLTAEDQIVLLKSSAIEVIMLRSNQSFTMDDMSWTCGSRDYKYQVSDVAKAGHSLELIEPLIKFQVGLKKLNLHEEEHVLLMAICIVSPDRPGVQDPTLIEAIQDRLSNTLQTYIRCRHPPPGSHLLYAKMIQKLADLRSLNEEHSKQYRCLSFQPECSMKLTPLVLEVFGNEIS
# [8] = 260 pmol daily for 7 days i.p., Table 4 and Table 6 panel 1
# [9] = 260 pmol daily for 7 days i.p., Table 6 panel 2
# [10] = 15 pmol daily for 7 days i.p., Table 4 and Table 6 panel 1
# [11] = 32 pmol daily for 7 days i.p., Table 4 and Table 6 panel 1
# [12] = 65 pmol daily for 7 days i.p., Table 6 panel 2
SMILES,Intestinal Calcium Transport (S/M) (vitamin D-deficient rats [1]),"Ca Transport S/M (mean ± SEM) [2, 9]",Serum Calcium (vitamin D-deficient rats [3]) [mg/100 ml],"Serum Ca (mean ± SEM) [4, 9]",Serum Calcium (vitamin D-deficient rats [5]; 130 pmol/day for 7 days) [mg/100 ml],Serum Calcium (vitamin D-deficient rats [5]; 260 pmol/day for 7 days) [mg/100 ml],Intestinal Calcium Transport (S/M) (vitamin D-deficient rats [6]; 260 pmol/day for 7 days),"intestinal calcium transport, in words (vitamin D-deficient rats [6])",HL-60 Differentiation Activity ratio (HL-60 cells),EC50 [7] [nM],VDR Binding ratio [7],HL-60 Differentiation ED50 (HL-60 cells) [nM],also measured
"C=C1/C(=C\C=C2/CCC[C@]3(C)[C@@H]([C@H](C)CCCC(C)(C)O)CC[C@@H]23)C[C@@H](O)C[C@@H]1O [1,25-(OH)2D3, 1α,25-dihydroxyvitamin D3, reference compound]",5.8 ± 0.3,5.0 ± 0.4^c S/M,5.7 ± 0.2,6.3 ± 0.2^c,13.8,7.2 ± 0.5,6.2 ± 0.4,expected elevation,–,–,–,–,"HL-60 Differentiation ED50 (HL-60 cells; listed as 1α,25-(OH)2D3): 4 nM; Ca Transport S/M (mean ± SEM) [2, 8]: 7.2 ± 0.6^c S/M; Serum Ca (mean ± SEM) [4, 8]: 5.6 ± 0.2^c"
"C=C1[C@H](O)CC(=C/C=C2\CCC[C@]3(C)[C@@H]([C@H](C)CCCC(C)(C)O)CC[C@@H]23)C[C@H]1O [2-Methylene-19-Nor-1,25-(OH)2D3, 1α,25-dihydroxy-2-methylene-19-nor-vitamin D3]",5.3 ± 0.5,–,6.4 ± 0.1,–,9.9 ± 0.2,9.6 ± 0.3,4.9 ± 0.6,no intestinal calcium transport activity,–,–,–,–,"induction of differentiation of HL-60 cells to the monocyte, in words (HL-60 cells): activity similar to 1,25-(OH)2D3; bone calcium mobilization, in words (vitamin D-deficient rats [5]; chronic 7 days): extremely strong bone calcium mobilization; bone calcium mobilization activity relative to 1,25-(OH)2D3 (native hormone) (vitamin D-deficient rats [5]; chronic 7 days, for the 20(S) compound at 130 pmol/day): 10-100 times; Intestinal Calcium Transport (S/M) (vitamin D-deficient rats [6]; 130 pmol/day for 7 days): 5.3 ± 0.4 S/M"
"C=C1[C@H](O)CC(=C/C=C2\CCC[C@]3(C)[C@@H]([C@@H](C)CCCC(C)(C)O)CC[C@@H]23)C[C@H]1O [2-Methylene-19-Nor-20(S)-1,25-(OH)2D3, 20(S)-1α,25-dihydroxy-2-methylene-19-nor-vitamin D3]",5.5 ± 0.6,–,8.0 ± 0.1,–,13.8 ± 0.5,14.4 ± 0.6,4.6 ± 0.7,no significant change,–,–,–,–,"induction of differentiation of HL-60 cells to the monocyte, in words (HL-60 cells): extremely potent; Serum Calcium (vitamin D-deficient rats [5]; 260 pmol/day for 7 days, listed as 2-methylene-19-nor-20(S)-1,25-(OH)2D3): 14 mg/100 ml; bone calcium mobilization, in words (vitamin D-deficient rats [5]; chronic 7 days): most potent compound tested; Intestinal Calcium Transport (S/M) (vitamin D-deficient rats [6]; 130 pmol/day for 7 days): 5.7 ± 0.8 S/M"
"C=C1[C@H](O)CC(=C/C=C2\CCC[C@@]3(C)C2CCC3[C@@H](C)CCCC(O)(CC)CC)C[C@H]1O (stereo partly drawn) [Compound 35, 20(S)-1α,25-Dihydroxy-2-methylene-26,27-dihomo-19-norvitamin D3]",–,–,–,–,–,–,–,–,0.01,4.3,4.9,–,"Ca Transport S/M (mean ± SEM) [2, 10]: 4.0 ± 0.4^d^^1 S/M; Ca Transport S/M (mean ± SEM) [2, 11]: 8.2 ± 0.6^d^^2 S/M; Serum Ca (mean ± SEM) [4, 10]: 5.3 ± 0.1^d^^1; Serum Ca (mean ± SEM) [4, 11]: 7.3 ± 0.4^d^^2"
"C=C1[C@H](O)CC(=C/C=C2\CCC[C@@]3(C)C2CCC3[C@@H](C)CCC=C2CCCC2)C[C@H]1O (stereo partly drawn) [Compound 45, 20(S)-26,27-dimethylene-1α-hydroxy-2-methylene-24-dehydro-19-norvitamin D3]",–,4.3 ± 0.5^d^^2 S/M,–,10.8 ± 0.3^d^^2,–,–,–,–,1.0,29,33,4.1,"Ca Transport S/M (mean ± SEM) [2, 12]: 5.5 ± 0.8^d^^1 S/M; Serum Ca (mean ± SEM) [4, 12]: 5.7 ± 0.1^d^^1"
"C=C1[C@H](O)CC(=C/C=C2\CCC[C@@]3(C)C2CCC3[C@@H](C)CCCC2(OC)CCCC2)C[C@H]1O (stereo partly drawn) [Compound 46, 20(S)-26,27-dimethylene-1α-hydroxy-25-methoxy-2-methylene-19-norvitamin D3]",–,4.3 ± 0.5^e^^2 S/M,–,10.8 ± 0.3^e^^2,–,–,–,–,1.1,15,17,4.3,"Ca Transport S/M (mean ± SEM) [2, 12]: 5.5 ± 0.8^e^^1 S/M; Serum Ca (mean ± SEM) [4, 12]: 5.7 ± 0.1^e^^1"
"C=C1[C@H](O)CC(=C/C=C2\CCC[C@@]3(C)C2CCC3[C@@H](C)CCCC2(O)CCCC2)C[C@H]1O (stereo partly drawn) [Compound 47, 20(S)-1α,25-dihydroxy-26,27-dimethylene-2-methylene-19-norvitamin D3]",–,–,–,–,–,–,–,–,0.01,2.7,3.1,0.036,"Ca Transport S/M (mean ± SEM) [2, 10]: 5.6 ± 0.6^d^^1 S/M; Ca Transport S/M (mean ± SEM) [2, 11]: 5.3 ± 0.5^d^^2 S/M; Serum Ca (mean ± SEM) [4, 10]: 5.4 ± 0.2^d^^1; Serum Ca (mean ± SEM) [4, 11]: 6.4 ± 0.2^d^^2"
